Entries after “also recorded” stand apart in the source; their conditions may differ.
Key:
[1] = system: ovariectomized female mice; assay: reproductive tissue and thymus effects in ovariectomized mice
MCF-7 cells [2] = assay: MCF-7 cell proliferation; conditions: 6 days, WST assay
[3] = system: ovariectomized C57BL/6 mice; assay: gene regulation and signaling pathway activation in tissues in vivo
[4] = system: ovariectomized C57BL/6 mice; assay: metabolic effects in ovariectomized mice
MCF-7 cells [5] = assay: RNA-Seq transcriptional profiling; conditions: for number of genes regulated: 10 nM E2 or 1 μM PaPE-1, P<0.05, fold change >2
MCF-7 cells [6] = assay: Western blot of signaling pathway activation in MCF-7 cells
ERα-knockout mice = assay: effects in ERα-knockout; conditions: ERKO mice
ovariectomized mice = assay: carotid artery reendothelialization after perivascular electric injury
[7] = system: primary bovine aortic endothelial cells (BAECs); assay: eNOS activation; type: cell-based; conditions: for eNOS / NOS activity: 15 min
ERα-SRC3 interaction = assay: tr-FRET assay of SRC3 binding to ERα; type: biochemical
MCF-7 cells [8] = assay: ChIP-Seq of ERα, ERK2, pSer5 RNA Pol II

## C[C@]12CC[C@@H]3c4ccc(O)cc4CC[C@H]3[C@@H]1CC[C@@H]2O [E2, estradiol]
[1]
  mammary gland adiposity: reduced the mammary gland adiposity
  mammary gland ductal morphology: elicited marked ductal growth
  thymus size: induced marked involution of the thymus
  uterine weight: effective in increasing growth of the uterus
MCF-7 cells [2]
  proliferation of MCF-7 cells: potently stimulated proliferation
[3]; injected, 2h
  mTOR signaling (S6 phosphorylation) in liver and skeletal muscle: effective in inducing mTOR signaling
  signaling pathway stimulation in reproductive tissues (uterus and mammary gland): stimulated reproductive tissues
[3]; pellets, qPCR
  gene expression changes in uterus: induced gene expression changes in uterus
[4]; 3 weeks
  food consumption: early drop in food intake
  liver FASN and SREBP-1c gene expression: reduced
[4]; 3 weeks, pellets
  body weight gain after ovariectomy: suppressed; also recorded: reduced body weight gain
[4]; 3 weeks, perigonadal, perirenal, subcutaneous, mesenteric
  weight of fat depots: decreased the weight of all of the fat depots examined
[4]; end of 3 weeks
  fat mass (EchoMRI): greatly reduced fat mass; also recorded: reduced fat mass more markedly
  lean mass and water mass (EchoMRI): increased only by E2; also recorded: did increase lean mass and water mass
  triglyceride concentrations in blood: decreased triglyceride concentrations in blood
[4]; liver, 3 weeks
  hepatocyte lipid content (Oil Red O): decreased hepatocyte lipid content
MCF-7 cells [5]; 1 μM AZD6244 pretreatment, 4 h
  regulated genes blocked by MAPK inhibitor AZD6244: ~ 23%
MCF-7 cells [5]; 1 μM PP242 pretreatment, 4 h
  regulated genes blocked by mTOR pathway inhibitor PP242: 40%
MCF-7 cells [5]; 4h
  number of genes regulated: ~1500 genes
MCF-7 cells [5]; 24h
  number of genes regulated: about 3000 genes
MCF-7 cells [6]
  phosphorylation of Ser118 in ERα: observed
ERα-knockout mice
  blood triglycerides: did not decrease blood triglycerides
  suppression of liver FASN and SREBP1c gene expression: lost in ERKO mice
  uterine growth: did not stimulate uterine growth
ERα-knockout mice; 3 weeks
  ability to diminish body weight gain after ovariectomy: lost
Ovariectomized mice; plus antiestrogen ICI
  uterine stimulation with ICI: blocked uterine stimulation
Ovariectomized mice; plus antiestrogen ICI 182,780
  endothelial repair response with ICI 182,780: fully prevented
Ovariectomized mice; same animals as reendothelialization
  uterine weight: greatly elevated by E2
[7]
  eNOS / NOS activity: activated by E2
[7]; plus antiestrogen ICI 182,780
  eNOS / NOS stimulation with ICI: fully attenuated by ICI
ERα-SRC3 interaction; coactivator titration
  SRC3 binding to ERα-ligand complex: bound with high affinity
MCF-7 cells [8]
  ERK2 recruitment: caused recruitment of ERK2 to enhancer regions together with ERα
  ERα recruitment to chromatin: recruited to chromatin

## CC/C(=C(\c1ccc(O)cc1)c1ccc(OCCN(C)C)cc1)c1ccccc1 [OH-Tam, trans-hydroxytamoxifen]
ERα-SRC3 interaction
  reversal of the ER-SRC3 interaction promoted by E2: reversed the ER-SRC3 interaction

## CC(=O)NCCNC(=O)CCC(C)(c1ccc(O)cc1)c1ccc(O)cc1 [PaPE-4]
[7]
  eNOS / NOS activity: increased NOS activity

Source: PMC4896643 (Science signaling, 2016)
